Test [1] relates to BaF3. The test is described as follows: Antitumor activity against mouse Ba/F3 cells expressing in […] wildtype allografted in BALB/cA mouse assessed as reduction in tumor growth at 30 mg/kg twice daily for 12 to 14 days relative to control. The format is functional. Particulars: time 12-14 day, read-out: TGI.
For test [2], the system named is BaF3. Description: Antitumor activity against mouse Ba/F3 cells expressing in ETV6-TRKC-G623R mutant allografted in BALB/cA mouse assessed as reduction in tumor growth at 30 mg/kg twice daily for 12 to 14 days relative to control. The settings on record: BaF3, read-out: TGI.

In the case of `O=C(Nc1cnn2ccc(N3CCC[C@@H]3c3cc(F)ccc3F)nc12)N1CC[C@H](O)C1` [LAROTRECTINIB], the inhibition in vivo at 30 mg/kg in the test on BaF3 [1] amounted to 30%. As for `C[C@@H]1CCc2ncc(F)cc2[C@H]2CCCN2c2ccn3ncc(c3n2)C(=O)N1` [SELITRECTINIB], the inhibition in vivo at 30 mg/kg in the test with BaF3 [2] is 73%.
